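Assay format: 96-well plates, 48-hour exposure. Abbreviation: GI50, concentration required for 50% inhibition of growth.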 The source made the active and inactive calls. No stated cut-off is given here; in the data, active = GI50 up to about 1.1 µM and inactive = higher.
Columns and labels:
Test in all cases: DTP human tumour cell line panel, 48 h
KM12 = tested on: KM12
NCI-H522 = tested on: NCI-H522
T47D = tested on: T47D
SK-MEL-28 = tested on: SK-MEL-28
RXF 393 = tested on: RXF 393
K562 = tested on: K562
LOX IMVI = tested on: LOX IMVI
MOLT-4 = tested on: MOLT-4
Hs-578T = tested on: Hs-578T
SNB-75 = tested on: SNB-75
NCI-H226 = tested on: NCI-H226
UACC-257 = tested on: UACC-257
UACC-62 = tested on: UACC-62
NCI/ADR-RES = tested on: NCI/ADR-RES
MCF7 = tested on: MCF7
HT-29 = tested on: HT-29
MDA-MB-231 = tested on: MDA-MB-231
SW-620 = tested on: SW-620
SF-539 = tested on: SF-539
ACHN = tested on: ACHN
NCI-H23 = tested on: NCI-H23
CAKI-1 = tested on: CAKI-1
OVCAR-5 = tested on: OVCAR-5
SK-OV-3 = tested on: SK-OV-3
A498 = tested on: A498
BT-549 = tested on: BT-549
HOP-92 = tested on: HOP-92
NCI-H460 = tested on: NCI-H460
HCT-15 = tested on: HCT-15
HCT-116 = tested on: HCT-116
SR = tested on: SR
MDA-MB-435 = tested on: MDA-MB-435
M14 = tested on: M14
OVCAR-8 = tested on: OVCAR-8
SF-295 = tested on: SF-295
EKVX = tested on: EKVX
A549 = tested on: A549
HL-60 = tested on: HL-60
PC-3 = tested on: PC-3
CCRF-CEM = tested on: CCRF-CEM
COLO 205 = tested on: COLO 205
IGROV-1 = tested on: IGROV-1
SN12C = tested on: SN12C
SK-MEL-5 = tested on: SK-MEL-5
TK-10 = tested on: TK-10
DU-145 = tested on: DU-145
U-251 = tested on: U-251
UO-31 = tested on: UO-31
SF-268 = tested on: SF-268
OVCAR-4 = tested on: OVCAR-4
786-0 = tested on: 786-0
MDA-N = tested on: MDA-N
HCC 2998 = tested on: HCC 2998
Malme-3M = tested on: Malme-3M
SK-MEL-2 = tested on: SK-MEL-2
SNB-19 = tested on: SNB-19
OVCAR-3 = tested on: OVCAR-3
RPMI-8226 = tested on: RPMI-8226
HOP-62 = tested on: HOP-62

With CCCCCCCCCCCC1=C(O)C(=O)C(CC2=C(O)C(=O)C(CCCCCCCCCCC)=C(O)C2=O)=C(O)C1=O the GI50 (KM12) was > 100 µM (inactive), the GI50 (NCI-H522) was 40.6 µM (inactive) and the GI50 (T47D) was > 100 µM (inactive). The GI50 (SK-MEL-28) was > 100 µM (inactive), the GI50 (RXF 393) was 3.19 µM (inactive) and the GI50 (K562) was 49.8 µM (inactive). The GI50 (LOX IMVI) was > 100 µM (inactive), the GI50 (MOLT-4) was > 100 µM (inactive) and the GI50 (Hs-578T) was 22.8 µM (inactive). The GI50 (SNB-75) was 14.9 µM (inactive), the GI50 (NCI-H226) was > 100 µM (inactive) and the GI50 (UACC-257) was > 100 µM (inactive). For the same molecule, the GI50 (UACC-62) was > 100 µM (inactive), the GI50 (NCI/ADR-RES) was > 100 µM (inactive) and the GI50 (MCF7) was > 100 µM (inactive). For the same molecule, the GI50 (HT-29) was > 100 µM (inactive), the GI50 (MDA-MB-231) was 28.6 µM (inactive) and the GI50 (SW-620) was > 100 µM (inactive). For the same molecule, the GI50 (SF-539) was > 100 µM (inactive), the GI50 (ACHN) was 76 µM (inactive) and the GI50 (NCI-H23) was 54.6 µM (inactive). The GI50 (CAKI-1) was 60.5 µM (inactive), the GI50 (OVCAR-5) was > 100 µM (inactive) and the GI50 (SK-OV-3) was 50.9 µM (inactive). For the same molecule, the GI50 (A498) was 52.2 µM (inactive), the GI50 (BT-549) was > 100 µM (inactive) and the GI50 (HOP-92) was 16.3 µM (inactive). The GI50 (NCI-H460) was > 100 µM (inactive), the GI50 (HCT-15) was greater than 100 µM and the GI50 (HCT-116) was > 100 µM (inactive). The GI50 (SR) was 19.2 µM (inactive), the GI50 (MDA-MB-435) was > 100 µM (inactive) and the GI50 (M14) was > 100 µM (inactive). The GI50 (OVCAR-8) was 29.8 µM (inactive), the GI50 (SF-295) was 35.2 µM (inactive) and the GI50 (EKVX) was > 100 µM (inactive). The GI50 (A549) was > 100 µM (inactive), the GI50 (HL-60) was > 10 µM (inactive) and the GI50 (PC-3) was > 100 µM (inactive). For the same molecule, the GI50 (CCRF-CEM) was 21.2 µM (inactive), the GI50 (COLO 205) was > 100 µM (inactive) and the GI50 (IGROV-1) was > 100 µM (inactive). The GI50 (SN12C) was > 100 µM (inactive), the GI50 (SK-MEL-5) was > 100 µM (inactive) and the GI50 (TK-10) was 46.6 µM (inactive). The GI50 (DU-145) was > 100 µM (inactive), the GI50 (U-251) was 43.5 µM (inactive) and the GI50 (UO-31) was > 100 µM (inactive). For the same molecule, the GI50 (SF-268) was 26.5 µM (inactive), the GI50 (OVCAR-4) was 40.7 µM (inactive) and the GI50 (786-0) was 59.6 µM (inactive). For the same molecule, the GI50 (MDA-N) was > 100 µM (inactive), the GI50 (HCC 2998) was > 100 µM (inactive) and the GI50 (Malme-3M) was 44 µM (inactive). The GI50 (SK-MEL-2) was > 100 µM (inactive) and the GI50 (SNB-19) was 21.1 µM (inactive).

With CC(C)(C)[Si](C)(C)OC[C@H](/C=C\CCCC(=O)O)NC1(c2ccccc2)c2ccccc2-c2ccccc21 the GI50 (KM12) was 15.5 µM (inactive), the GI50 (NCI-H522) was 18.7 µM (inactive) and the GI50 (T47D) was 7.38 µM (inactive). For the same molecule, the GI50 (SK-MEL-28) was 16.7 µM (inactive), the GI50 (RXF 393) was 10.2 µM (inactive) and the GI50 (K562) was 5.18 µM (inactive). For the same molecule, the GI50 (LOX IMVI) was 12.9 µM (inactive), the GI50 (MOLT-4) was 5.52 µM (inactive) and the GI50 (Hs-578T) was 20 µM (inactive). The GI50 (SNB-75) was 29.4 µM (inactive), the GI50 (NCI-H226) was 11.6 µM (inactive) and the GI50 (UACC-257) was 10.2 µM (inactive). The GI50 (UACC-62) was 12.6 µM (inactive), the GI50 (NCI/ADR-RES) was 9.75 µM (inactive) and the GI50 (MCF7) was 10.4 µM (inactive). The GI50 (HT-29) was 13.2 µM (inactive), the GI50 (MDA-MB-231) was 14.3 µM (inactive) and the GI50 (SW-620) was 22.5 µM (inactive). The GI50 (SF-539) was 16.3 µM (inactive), the GI50 (ACHN) was 11.8 µM (inactive) and the GI50 (NCI-H23) was 14.7 µM (inactive). The GI50 (CAKI-1) was 11.2 µM (inactive), the GI50 (OVCAR-5) was 23.2 µM (inactive) and the GI50 (SK-OV-3) was 20.4 µM (inactive). The GI50 (A498) was 17.5 µM (inactive), the GI50 (BT-549) was 24.5 µM (inactive) and the GI50 (HOP-92) was 11.1 µM (inactive). The GI50 (NCI-H460) was 15.1 µM (inactive), the GI50 (HCT-15) was 11.2 µM and the GI50 (OVCAR-3) was 12.5 µM (inactive). For the same molecule, the GI50 (HCT-116) was 7.29 µM (inactive), the GI50 (SR) was 4.65 µM (inactive) and the GI50 (MDA-MB-435) was 13.9 µM (inactive). For the same molecule, the GI50 (M14) was 16.8 µM (inactive), the GI50 (OVCAR-8) was 16.6 µM (inactive) and the GI50 (SF-295) was 16.4 µM (inactive). For the same molecule, the GI50 (EKVX) was 12.2 µM (inactive), the GI50 (RPMI-8226) was 4.17 µM (inactive) and the GI50 (A549) was 10.7 µM (inactive). For the same molecule, the GI50 (HL-60) was 8.53 µM (inactive), the GI50 (PC-3) was 6.52 µM (inactive) and the GI50 (COLO 205) was 13.6 µM (inactive). The GI50 (IGROV-1) was 16.7 µM (inactive), the GI50 (SN12C) was 11.6 µM (inactive) and the GI50 (SK-MEL-5) was 11.2 µM (inactive). For the same molecule, the GI50 (TK-10) was 24.3 µM (inactive), the GI50 (DU-145) was 25.9 µM (inactive) and the GI50 (U-251) was 14.4 µM (inactive). For the same molecule, the GI50 (UO-31) was 19.3 µM (inactive), the GI50 (SF-268) was 13.9 µM (inactive) and the GI50 (OVCAR-4) was 14.8 µM (inactive). For the same molecule, the GI50 (786-0) was 14 µM (inactive), the GI50 (HOP-62) was 15.2 µM (inactive) and the GI50 (MDA-N) was 20.6 µM (inactive). For the same molecule, the GI50 (HCC 2998) was 14.5 µM (inactive), the GI50 (SK-MEL-2) was 11.9 µM (inactive) and the GI50 (SNB-19) was 32.9 µM (inactive).

With Brc1c(C#CCC2CCCCC2)ccc(C#CCC2CCCCC2)c1Br the GI50 (KM12) was > 100 µM (inactive), the GI50 (NCI-H522) was > 100 µM (inactive) and the GI50 (T47D) was > 100 µM (inactive). The GI50 (SK-MEL-28) was > 100 µM (inactive), the GI50 (RXF 393) was > 100 µM (inactive) and the GI50 (K562) was > 100 µM (inactive). The GI50 (LOX IMVI) was > 100 µM (inactive), the GI50 (MOLT-4) was > 100 µM (inactive) and the GI50 (Hs-578T) was > 100 µM (inactive). The GI50 (SNB-75) was > 100 µM (inactive), the GI50 (NCI-H226) was > 100 µM (inactive) and the GI50 (UACC-257) was > 100 µM (inactive). For the same molecule, the GI50 (UACC-62) was > 100 µM (inactive), the GI50 (NCI/ADR-RES) was > 100 µM (inactive) and the GI50 (MCF7) was > 100 µM (inactive). The GI50 (MDA-MB-231) was > 100 µM (inactive), the GI50 (SW-620) was > 100 µM (inactive) and the GI50 (SF-539) was > 100 µM (inactive). For the same molecule, the GI50 (ACHN) was > 100 µM (inactive), the GI50 (CAKI-1) was > 100 µM (inactive) and the GI50 (OVCAR-5) was > 100 µM (inactive). The GI50 (A498) was > 100 µM (inactive), the GI50 (BT-549) was > 100 µM (inactive) and the GI50 (HOP-92) was > 100 µM (inactive). The GI50 (NCI-H460) was > 100 µM (inactive), the GI50 (HCT-15) was greater than 100 µM and the GI50 (OVCAR-3) was > 100 µM (inactive). The GI50 (SR) was > 100 µM (inactive), the GI50 (MDA-MB-435) was > 100 µM (inactive) and the GI50 (M14) was > 100 µM (inactive). The GI50 (OVCAR-8) was > 100 µM (inactive), the GI50 (SF-295) was > 100 µM (inactive) and the GI50 (EKVX) was > 100 µM (inactive). The GI50 (RPMI-8226) was > 100 µM (inactive), the GI50 (A549) was > 100 µM (inactive) and the GI50 (HL-60) was > 100 µM (inactive). The GI50 (PC-3) was > 100 µM (inactive), the GI50 (CCRF-CEM) was > 100 µM (inactive) and the GI50 (COLO 205) was > 100 µM (inactive). For the same molecule, the GI50 (IGROV-1) was > 100 µM (inactive), the GI50 (SN12C) was > 100 µM (inactive) and the GI50 (SK-MEL-5) was > 100 µM (inactive). The GI50 (TK-10) was > 100 µM (inactive), the GI50 (DU-145) was > 100 µM (inactive) and the GI50 (U-251) was > 100 µM (inactive). For the same molecule, the GI50 (SF-268) was > 100 µM (inactive), the GI50 (OVCAR-4) was > 100 µM (inactive) and the GI50 (786-0) was > 100 µM (inactive). The GI50 (MDA-N) was > 100 µM (inactive), the GI50 (HCC 2998) was > 100 µM (inactive) and the GI50 (Malme-3M) was > 100 µM (inactive). For the same molecule, the GI50 (SK-MEL-2) was > 100 µM (inactive) and the GI50 (SNB-19) was > 100 µM (inactive).

Source: ChEMBL document CHEMBL1201862, “PubChem BioAssay data set” (2004)
